Data as given in US9975900B2, “Substituted imidazo[1,2-α]pyrazines for treating spinal muscular atrophy” (Hoffmann-La Roche Inc., priority 2014, dated 2018).
Where a name gives a salt, the structure may show the parent alone.

What was measured:
[1] = test system: full length SMN2 minigene mRNA (HEK293H cells stably transfected with the SMN2-A minigene construct); experiment: RT-qPCR assay for SMN2 minigene pre-mRNA splicing in cultured cells; assay type: cell-based; details: Homo sapiens, HEK293-H, 24 hours, 7-point concentration curve, concentration giving 1.5-fold FL SMN2mini mRNA vs vehicle, read-out: EC1.5x minigene (EC1.5x concentration for production of full length SMN2 minigene mRNA)
Protocol: The reverse transcription-quantitative PCR-based (RT-qPCR) assay is used to quantify the level of the full length SMN2 minigene (referred to herein by the term “FL SMN2mini”) mRNA containing SMN2 exon 7 in a HEK293H cell line stably transfected with said minigene and treated with a test compound. Materials used and respective sources are listed below in Table 1.
The SMN2-A minigene construct was prepared as described in International Patent Application WO2009/151546A1 page 145 paragraph [00400] to page 147 paragraph [00412] (incl. FIG. 1 and FIG. 3 therein).
HEK293H cells stably transfected with the SMN2-A minigene construct (10,000 cells/well) are seeded in 200 μL of cell culture medium (DMEM plus 10% FBS, with 200 μg/mL hygromycin) in 96-well flat-bottom plates and the plate is immediately swirled to ensure proper dispersal of cells and the formation of an even monolayer of cells. Cells are allowed to attach for 6 hours. Test compounds are serially diluted 3.16-fold in 100% DMSO to generate a 7-point concentration curve. A solution of test compound (1 μL, 200× in DMSO) is added to each cell-containing well and the plate is incubated for 24 hours in a cell culture incubator (37° C., 5% CO2, 100% relative humidity). 2 replicates are prepared for each test compound concentration. The cells are then lysed in the Cells-To-Ct lysis buffer and the lysate is stored at −80° C.
Full length SMN2-A minigene and GAPDH mRNA are quantified using the primers and probes referenced in Table 2. Primer SMN Forward A (SEQ ID NO.1) hybridizes to a nucleotide sequence in exon 7 (nucleotide 22 to nucleotide 40), primer SMN Reverse A (SEQ ID NO.2) hybridizes to a nucleotide sequence in the coding sequence of Firefly luciferase, SMN Probe A (SEQ ID NO.3) hybridizes to a nucleotide sequence in exon 7 (nucleotide 50 to nucleotide 54) and exon 8 (nucleotide 1 to nucleotide 21). The combination of these three oligonucleotides detects only SMN1 or SMN2 minigenes (RT-qPCR) and will not detect endogenous SMN1 or SMN2 genes.
The SMN forward and reverse primers are used at final concentrations of 0.4 μM. The SMN probe is used at a final concentration of 0.15 μM. The GAPDH primers are used at final concentrations of 0.2 μM and the probe at 0.15 μM.
The SMN2-minigene GAPDH mix (15 μL total volume) is prepared by combining 7.5 of 2×RT-PCR buffer, 0.4 μL of 25×RT-PCR enzyme mix, 0.75 μL of 20× GAPDH primer-probe mix, […] of water, 2 μL of 10-fold diluted cell lysate, 0.06 μL of 100 μM SMN forward primer, 0.06 μL of 100 μM SMN reverse primer, and 0.225 μL of 100 μM SMN probe.
PCR is carried out at the following temperatures for the indicated time: Step 1: 48° C. (15 min); Step 2: 95° C. (10 min); Step 3: 95° C. (15 sec); Step 4: 60° C. (1 min); then repeat Steps 3 and 4 for a total of 40 cycles.
Each reaction mixture contains both SMN2-A minigene and GAPDH primers/probe sets (multiplex design), allowing simultaneous measurement of the levels of two transcripts.
The increase in the abundance of the FL SMN2mini mRNA relative to that in cells treated with vehicle control is determined from real-time PCR data using a modified ΔΔCt method (as described in Livak and Schmittgen, Methods, 2001, 25:402-8). The amplification efficiency E is calculated from the slope of the amplification curve for FL SMN2mini and GAPDH individually. The abundance of FL SMN2mini and GAPDH mRNA are then calculated as (1+E)^−Ct, where Ct is the threshold value for each amplicon. The abundance of FL SMN2mini mRNA is normalized to GAPDH mRNA abundance. The normalized FL SMN2mini mRNA abundance from test compound-treated samples is then divided by normalized FL SMN2mini mRNA abundance from vehicle-treated cells to determine the level of FL SMN2mini mRNA relative to vehicle control. […]

[2] = test system: SMN protein in SMA patient fibroblast cells (GM03813); experiment: SMN protein assay (HTRF) in cultured cells; assay type: cell-based; details: Homo sapiens, SMA Type 1 patient fibroblasts, 48 hours; for EC (1.5-fold): 7-point concentration curve, concentration giving 1.5 times SMN protein vs vehicle, read-out: EC1.5x SMN protein (EC1.5x concentration for SMN protein expression); for maximal fold induction: fold increase relative to vehicle control, read-out: Max. fold increase of SMN protein
Protocol: The SMN HTRF (homogeneous time resolved fluorescence) assay is used to quantify the level of SMN protein in SMA patient fibroblast cells treated with test compounds. Materials used and respective sources are listed below in Table 4.
Cells are thawed and cultured in DMEM-10% FBS for 72 hours. Cells are trypsinized, counted and re-suspended to a concentration of 25,000 cells/mL in DMEM-10% FBS. The cell suspensions are plated at 5,000 cells per well in a 96 well microtiter plate and incubated for 3 to 5 hours. Test compounds are serially diluted 3.16-fold in 100% DMSO to generate a 7-point concentration curve. 1 μL of test compound solution is transferred to cell-containing wells and cells are incubated for 48 hours in a cell culture incubator (37° C., 5% CO2, 100% relative humidity). Triplicate samples are set up for each test compound concentration. After 48 hours, the supernatant is removed from the wells and 25 μL of the RIPA lysis buffer, containing protease inhibitors, is added to the wells and incubated with shaking at room temperature for 1 hour. 25 μL of the diluent is added and then 35 μL of the resulting lysate is transferred to a 384-well plate, where each well contains 5 μL of the antibody solution (1:100 dilution of anti-SMN d2 and anti-SMN cryptate in SMN reconstitution buffer). The plate is centrifuged for 1 minute to bring the solution to the bottom of the wells, then incubated overnight at room temperature. Fluorescence for each well of the plate at 665 nm and 620 nm is measured on an EnVision multilabel plate reader (Perkin-Elmer).
The normalized fluorescence signal is calculated for each sample, Blank and vehicle control well by dividing the signal at 665 nm by the signal at 620 nm. Normalizing the signal accounts for possible fluorescence quenching due to the matrix effect of the lysate. The ΔF value (a measurement of SMN protein abundance as a percent value) for each sample well is calculated by subtracting the normalized average fluorescence for the Blank control wells from the normalized fluorescence for each sample well, then dividing this difference by the normalized average fluorescence for the Blank control wells and multiplying the resulting value by 100. The ΔF value for each sample well represents the SMN protein abundance from test compound-treated samples. The ΔF value for each sample well is divided by the ΔF value for the vehicle control wells to calculate the fold increase in SMN protein abundance relative to the vehicle control. Table 5 provides EC1.5× concentrations for SMN protein expression that was obtained from the 7-point concentration data generated according to the above procedure for particular compounds of the present invention.
Table 6 provides the maximum fold increase of SMN protein that was obtained from the 7-point concentration data generated according to the above procedure for particular compounds of the present invention

Row | Structure (SMILES) | EC (1.5-fold) [1] [µM] | EC (1.5-fold) [2] [µM] | maximal fold induction [2]
1 | Cc1cn2cc(NC(=O)c3ccc(N4CCN[C@H](C)C4)cc3F)nc(C3CC3)c2n1 [Example 23, N-(8-cyclopropyl-2-methylimidazo[1,2-a]pyrazin-6-yl)-2-fluoro-4-[(3R)-3-methylpiperazin-1-yl]benzamide hydrochloride] | 0.0268 | 0.0622 | 1.72
2 | Cc1cn2cc(NC(=O)c3ccc(N4CCNC(C)(C)C4)cc3F)ncc2n1 [Example 35, 4-(3,3-dimethylpiperazin-1-yl)-2-fluoro-N-(2-methylimidazo[1,2-a]pyrazin-6-yl)benzamide hydrochloride] | 0.0317 | 0.505 | 2.16
3 | Cc1cn2cc(NC(=O)c3ccc(N4CCN[C@H](C)C4)cc3F)nc(C(F)(F)F)c2n1 [Example 43, 2-fluoro-4-[(3R)-3-methylpiperazin-1-yl]-N-[2-methyl-8-(trifluoromethyl)imidazo[1,2-a]pyrazin-6-yl]benzamide] | 0.04 | 0.087 | 1.76
4 | CCOc1cc(N2CCN[C@@H](C)C2)ccc1C(=O)Nc1cn2cc(C)nc2cn1 [Example 4, 2-ethoxy-N-(2-methylimidazo[1,2-a]pyrazin-6-yl)-4-[(3S)-3-methylpiperazin-1-yl]benzamide] | 0.0263 | 0.122 | 1.92
5 | Cc1cn2cc(NC(=O)c3ccc(N4CCNCC4)cc3F)ncc2n1 [Example 1, 2-fluoro-N-(2-methylimidazo[1,2-a]pyrazin-6-yl)-4-piperazin-1-ylbenzamide hydrochloride] | 0.0374 | 0.087 | 1.9
6 | Cc1cn2cc(NC(=O)c3ccc(N4CC[C@H](N5CCCC5)C4)cc3F)ncc2n1 [Example 24, 2-fluoro-N-(2-methylimidazo[1,2-a]pyrazin-6-yl)-4-[(3S)-3-pyrrolidin-1-ylpyrrolidin-1-yl]benzamide] | 0.051 | 0.113 | 1.75
7 | Cc1cn2cc(NC(=O)c3ccc(N4CCN[C@H](C)C4)cc3F)nc(C)c2n1 [Example 11, N-(2,8-dimethylimidazo[1,2-a]pyrazin-6-yl)-2-fluoro-4-[(3R)-3-methylpiperazin-1-yl]benzamide] | 0.0164 | 0.0522 | 1.8
8 | Cc1cn2cc(NC(=O)c3ccc(N4CC[C@H](N5CCCC5)C4)cc3F)nc(C)c2n1 [Example 20, N-(2,8-dimethylimidazo[1,2-a]pyrazin-6-yl)-2-fluoro-4-[(3S)-3-pyrrolidin-1-ylpyrrolidin-1-yl]benzamide] | 0.023 | 0.101 | 1.7
9 | Cc1cn2cc(NC(=O)c3cc(F)c(N4CCNC(C)C4)cc3F)ncc2n1 (stereo not drawn) [Example 29, 2,5-difluoro-N-(2-methylimidazo[1,2-a]pyrazin-6-yl)-4-(3-methylpiperazin-1-yl)benzamide hydrochloride] | 0.0852 | 0.495 | 1.91
10 | Cc1cn2cc(NC(=O)c3ccc(N4CCN5CCC[C@@H]5C4)cc3F)nc(C3CC3)c2n1 [Example 22, 4-[(8aR)-3,4,6,7,8,8a-hexahydro-1H-pyrrolo[1,2-a]pyrazin-2-yl]-N-(8-cyclopropyl-2-methylimidazo[1,2-a]pyrazin-6-yl)-2-fluorobenzamide] | 0.0952 | 0.66 | 1.5
11 | Cc1cn2cc(NC(=O)c3ccc(N4C[C@@H](C)N[C@@H](C)C4)cc3F)ncc2n1 [Example 27, 4-[(3S,5R)-3,5-dimethylpiperazin-1-yl]-2-fluoro-N-(2-methylimidazo[1,2-a]pyrazin-6-yl)benzamide] | 0.0167 | 1.52 | 1.85
12 | CCc1nc(NC(=O)c2ccc(N3CCN[C@H](C)C3)cc2F)cn2cc(C)nc12 [Example 21, N-(8-ethyl-2-methylimidazo[1,2-a]pyrazin-6-yl)-2-fluoro-4-[(3R)-3-methylpiperazin-1-yl]benzamide hydrochloride] | 0.0204 | 0.162 | 1.8
13 | CC[C@@H]1CN(c2ccc(C(=O)Nc3cn4cc(C)nc4c(C4CC4)n3)c(F)c2)CCN1 [Example 36, N-(8-cyclopropyl-2-methylimidazo[1,2-a]pyrazin-6-yl)-4-[(3R)-3-ethylpiperazin-1-yl]-2-fluorobenzamide hydrochloride] | 0.0534 | 1.09 | 1.53
14 | CC[C@H]1CN(c2ccc(C(=O)Nc3cn4cc(C)nc4cn3)c(F)c2)CCN1 [Example 42, 4-[(3S)-3-ethylpiperazin-1-yl]-2-fluoro-N-(2-methylimidazo[1,2-a]pyrazin-6-yl)benzamide hydrochloride] | 0.0144 | 0.231 | 1.72
15 | CCc1nc(NC(=O)c2ccc(N3CCN4CCC[C@H]4C3)cc2F)cn2cc(C)nc12 [Example 16, 4-[(8aS)-3,4,6,7,8,8a-hexahydro-1H-pyrrolo[1,2-a]pyrazin-2-yl]-N-(8-ethyl-2-methylimidazo[1,2-a]pyrazin-6-yl)-2-fluorobenzamide] | 0.0314 | 0.237 | 1.72
